22 molecules from patent US20260250290A1 (BRISTOL-MYERS SQUIBB COMPANY, priority 2023, published 2026) can be followed below.

This assay addresses T1, full length SGK1 (Homo sapiens, UniProt O00141).
T1 construct: 125 μM full length SGK1 (Life Technologies Part #PR7358A); purchased Life Technologies PR7358A
T1 sequence (O00141 1-431): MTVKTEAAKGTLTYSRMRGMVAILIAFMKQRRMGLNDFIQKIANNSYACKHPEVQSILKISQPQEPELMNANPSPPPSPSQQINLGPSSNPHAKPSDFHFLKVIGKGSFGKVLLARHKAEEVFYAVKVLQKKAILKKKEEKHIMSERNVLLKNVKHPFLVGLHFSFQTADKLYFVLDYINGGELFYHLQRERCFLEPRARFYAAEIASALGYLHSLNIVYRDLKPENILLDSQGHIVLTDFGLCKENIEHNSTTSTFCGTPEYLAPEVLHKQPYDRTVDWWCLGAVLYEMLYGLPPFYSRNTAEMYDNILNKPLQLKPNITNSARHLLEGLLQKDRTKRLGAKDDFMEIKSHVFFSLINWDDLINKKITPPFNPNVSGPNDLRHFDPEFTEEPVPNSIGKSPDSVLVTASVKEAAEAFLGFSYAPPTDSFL
The assay can be described thus: SGK1 inhibition Assay A (Caliper LabChip electrophoretic separation of fluorescent peptide substrate and phosphorylated product). The assay is classed as biochemical. The note with it: Assay A; 20 μM ATP, 40 min incubation; read-out: SGK1 IC50.

Structures are written as SMILES.

Usually IC50 stands for the concentration that inhibits the measured activity by half. As to `COC(=O)N1CC=C(c2cc(N3CCC[C@@H](NC(=O)c4sc(C(F)F)cc4N4CC5(COC5)C4)C3)c3c(N)ncnn23)C1` [Example 317, Methyl (R)-3-(4-amino-5-(3-(5-(difluoromethyl)-3-(2-oxa-6-azaspiro[3.3]heptan-6-yl)thiophene-2-carboxamido)piperidin-1-yl)pyrrolo[2,1-f][1,2,4]triazin-7-yl)-2,5-dihydro-1H-pyrrole-1-carboxylate], the IC50 was 0.034 µM. As to `N#Cc1ccc(-c2cc(N3CCC[C@@H](NC(=O)c4sc(C(F)F)cc4N4CCOCC4)C3)c3c(N)ncnn23)cn1` [Example 318, (R)—N-(1-(4-amino-7-(6-cyanopyridin-3-yl)pyrrolo[2,1-f][1,2,4]triazin-5-yl)piperidin-3-yl)-5-(difluoromethyl)-3-morpholinothiophene-2-carboxamide], the IC50 was 0.015 µM. The same measure for `CC(=O)N1CC=C(c2cc(N3CCC[C@@H](NC(=O)c4sc(C(F)F)cc4N4CCOCC4)C3)c3c(N)ncnn23)C1` [Example 319, (R)-N-(1-(7-(1-acetyl-2,5-dihydro-1H-pyrrol-3-yl)-4-aminopyrrolo[2,1-f][1,2,4]triazin-5-yl)piperidin-3-yl)-5-(difluoromethyl)-3-morpholinothiophene-2-carboxamide]: 0.011 µM; for `COC(=O)N1CC=C(c2cc(N3CCC[C@@H](NC(=O)c4sc(C(F)F)cc4N4CCOCC4)C3)c3c(N)ncnn23)C1` [Example 321, Methyl (R)-3-(4-amino-5-(3-(5-(difluoromethyl)-3-morpholinothiophene-2-carboxamido)piperidin-1-yl)pyrrolo[2,1-f][1,2,4]triazin-7-yl)-2,5-dihydro-1H-pyrrole-1-carboxylate]: 0.013 µM.

In the case of `CC(=O)N1CC=C(c2cc(N3CCC[C@@H](NC(=O)c4sc(C(F)F)cc4C4=CCN(C)CC4)C3)c3c(N)ncnn23)C1` [Example 322, (R)—N-(1-(7-(1-acetyl-2,5-dihydro-1H-pyrrol-3-yl)-4-aminopyrrolo[2,1-f][1,2,4]triazin-5-yl)piperidin-3-yl)-5-(difluoromethyl)-3-(1-methyl-1,2,3,6-tetrahydropyridin-4-yl)thiophene-2-carboxamide], the IC50 was found to be 0.096 µM.

Take `CN1CC=C(c2cc(C(F)F)sc2C(=O)N[C@@H]2CCCN(c3cc(-c4ccc(C(N)=O)c(F)c4)n4ncnc(N)c34)C2)CC1` [Example 323, (R)—N-(1-(4-amino-7-(4-carbamoyl-3-fluorophenyl)pyrrolo[2,1-f][1,2,4]triazin-5-yl)piperidin-3-yl)-5-(difluoromethyl)-3-(1-yl)-5-(difluoromethyl)-3-(1-methyl-1,2,3,6-tetrahydropyridin-4-yl)thiophene-2-carboxamide]: the half-inhibitory concentration (IC50) came out at 0.019 µM. For `COC(=O)N1CC=C(c2cc(N3CCC[C@@H](NC(=O)c4sc(C(F)F)cc4OCCN)C3)c3c(N)ncnn23)C1` [Example 324, methyl (R)-3-(4-amino-5-(3-(3-(2-aminoethoxy)-5-(difluoromethyl)thiophene-2-carboxamido)piperidin-1-yl)pyrrolo[2,1-f][1,2,4]triazin-7-yl)-2,5-dihydro-1H-pyrrole-1-carboxylate], the IC50 is 0.004 µM.

With `NCCOc1cc(C(F)F)sc1C(=O)N[C@@H]1CCCN(c2cc(-c3cncnc3)n3ncnc(N)c23)C1` [Example 325, (R)-N-(1-(4-amino-7-(pyrimidin-5-yl)pyrrolo[2,1-f][1,2,4]triazin-5-yl)piperidin-3-yl)-3-(2-aminoethoxy)-5-(difluoromethyl)thiophene-2-carboxamide], the IC50 was determined as 0.015 µM. For `NCCOc1cc(C(F)F)sc1C(=O)N[C@@H]1CCCN(c2cc(-c3ccnc(C(F)F)c3)n3ncnc(N)c23)C1` [Example 326, (R)-N-(1-(4-amino-7-(2-(difluoromethyl)pyridin-4-yl)pyrrolo[2,1-f][1,2,4]triazin-5-yl)piperidin-3-yl)-3-(2-aminoethoxy)-5-(difluoromethyl)thiophene-2-carboxamide] the value was 0.004 µM.

`NCCOc1cc(Cl)sc1C(=O)N[C@@H]1CCCN(c2cc(-c3cncnc3)n3ncnc(N)c23)C1` [Example 327, (R)—N-(1-(4-amino-7-(pyrimidin-5-yl)pyrrolo[2,1-f][1,2,4]triazin-5-yl)piperidin-3-yl)-3-(2-aminoethoxy)-5-chlorothiophene-2-carboxamide]: the IC50 is 0.009 µM. With `CC(=O)NCCOc1cc(Cl)sc1C(=O)N[C@@H]1CCCN(c2cc(C3=CCN(C(C)=O)C3)n3ncnc(N)c23)C1` [Example 328, (R)-3-(2-acetamidoethoxy)-N-(1-(7-(1-acetyl-2,5-dihydro-1H-pyrrol-3-yl)-4-aminopyrrolo[2,1-f][1,2,4]triazin-5-yl)piperidin-3-yl)-5-chlorothiophene-2-carboxamide], the IC50 is 0.003 µM. For `CC(=O)N1CC=C(c2cc(N3CCC[C@@H](NC(=O)c4sc(Cl)cc4OCCNC(=O)C(F)F)C3)c3c(N)ncnn23)C1` [Example 329, (R)—N-(1-(7-(1-acetyl-2,5-dihydro-1H-pyrrol-3-yl)-4-aminopyrrolo[2,1-f][1,2,4]triazin-5-yl)piperidin-3-yl)-5-chloro-3-(2-(2,2-difluoroacetamido)ethoxy)thiophene-2-carboxamide] the value was 0.003 µM; for `CC(=O)N1CC=C(c2cc(N3CCC[C@@H](NC(=O)c4sc(Cl)cc4OC[C@H](C)N)C3)c3c(N)ncnn23)C1` [Example 330, N—((R)-1-(7-(1-acetyl-2,5-dihydro-1H-pyrrol-3-yl)-4-aminopyrrolo[2,1-f][1,2,4]triazin-5-yl)piperidin-3-yl)-3-((S)-2-aminopropoxy)-5-chlorothiophene-2-carboxamide], 0.003 µM. For `CC(=O)N1CC=C(c2cc(N3CCC[C@@H](NC(=O)c4sc(Cl)cc4OCC4(N)CC4)C3)c3c(N)ncnn23)C1` [Example 331, (R)—N-(1-(7-(1-acetyl-2,5-dihydro-1H-pyrrol-3-yl)-4-aminopyrrolo[2,1-f][1,2,4]triazin-5-yl)piperidin-3-yl)-3-((1-aminocyclopropyl)methoxy)-5-chlorothiophene-2-carboxamide] the value was 0.021 µM; for `CC(=O)N(C)CCOc1cc(Cl)sc1C(=O)N[C@@H]1CCCN(c2cc(C3=CCN(C(C)=O)C3)n3ncnc(N)c23)C1` [Example 332, (R)—N-(1-(7-(1-acetyl-2,5-dihydro-1H-pyrrol-3-yl)-4-aminopyrrolo[2,1-f][1,2,4]triazin-5-yl)piperidin-3-yl)-5-chloro-3-(2-(N-methylacetamido)ethoxy)thiophene-2-carboxamide], 0.018 µM; for `CNCCOc1cc(Cl)sc1C(=O)N[C@@H]1CCCN(c2cc(C3=CCN(C(C)=O)C3)n3ncnc(N)c23)C1` [Example 332D, (R)—N-(1-(7-(1-acetyl-2,5-dihydro-1H-pyrrol-3-yl)-4-aminopyrrolo[2,1-f][1,2,4]triazin-5-yl)piperidin-3-yl)-5-chloro-3-(2-(methylamino)ethoxy)thiophene-2-carboxamide], 0.01 µM. For `COC(=O)N(C)CCOc1cc(Cl)sc1C(=O)N[C@@H]1CCCN(c2cc(C3=CCN(C(C)=O)C3)n3ncnc(N)c23)C1` [Example 333] the value was 0.001 µM; for `COC(=O)N1CC=C(c2cc(N3CCC[C@@H](NC(=O)c4sc(C(F)F)cc4OCCN4CCN(C)CC4)C3)c3c(N)ncnn23)C1` [Example 334, Methyl (R)-3-(4-amino-5-(3-(5-(difluoromethyl)-3-(2-(4-methylpiperazin-1-yl)ethoxy)thiophene-2-carboxamido)piperidin-1-yl)pyrrolo[2,1-f][1,2,4]triazin-7-yl)-2,5-dihydro-1H-pyrrole-1-carboxylate], 0.009 µM. On to `CN1CCN(CCOc2cc(C(F)F)sc2C(=O)N[C@@H]2CCCN(c3cc(-c4ccnc(C(F)F)c4)n4ncnc(N)c34)C2)CC1` [Example 335, (R)—N-(1-(4-amino-7-(2-(difluoromethyl)pyridin-4-yl)pyrrolo[2,1-f][1,2,4]triazin-5-yl)piperidin-3-yl)-5-(difluoromethyl)-3-(2-(4-methylpiperazin-1-yl)ethoxy)thiophene-2-carboxamide], for which the IC50 worked out at 0.004 µM. `COC(=O)N1CC=C(c2cc(N3CCC[C@@H](NC(=O)c4sc(C(F)F)cc4OCCN4CCOCC4)C3)c3c(N)ncnn23)C1` [Example 336, methyl (R)-3-(4-amino-5-(3-(5-(difluoromethyl)-3-(2-morpholinoethoxy)thiophene-2-carboxamido)piperidin-1-yl)pyrrolo[2,1-f][1,2,4]triazin-7-yl)-2,5-dihydro-1H-pyrrole-1-carboxylate]: the IC50 turned out to be 0.028 µM. For `Nc1ncnn2c(-c3ccnc(C(F)F)c3)cc(N3CCC[C@@H](NC(=O)c4sc(C(F)F)cc4OCCN4CCOCC4)C3)c12` [Example 337, (R)—N-(1-(4-amino-7-(2-(difluoromethyl)pyridin-4-yl)pyrrolo[2,1-f][1,2,4]triazin-5-yl)piperidin-3-yl)-5-(difluoromethyl)-3-(2-morpholinoethoxy)thiophene-2-carboxamide] the value was 0.014 µM; for `CN(C)C(=O)COc1cc(Cl)sc1C(=O)N[C@@H]1CCCN(c2cc(-c3ccnc(C(F)F)c3)n3ncnc(N)c23)C1` [Example 339, (R)—N-(1-(4-amino-7-(2-(difluoromethyl)pyridin-4-yl)pyrrolo[2,1-f][1,2,4]triazin-5-yl)piperidin-3-yl)-5-chloro-3-(2-(dimethylamino)-2-oxoethoxy)thiophene-2-carboxamide], 0.009 µM.
